Patent US12508280B2, “Formulations for improving gut health” (DSM IP ASSETS B.V., priority 2018, dated 2025)

Assays:
[1] = system: fecal suspension from the selected donor; experiment: Gas production in closed colon incubations (first set); assay type: cell-based, human; settings: after 48 h fermentation, vs corresponding control
Description: The colon incubations were performed in closed incubation systems. This allowed us to evaluate the accumulation of gasses in the headspace, which can be measured with a pressure meter. Gas production is a measure of microbial activity, and thus of the speed of fermentation of the potentially prebiotic substrates. It can be used as an indication for bloating and digestive wellbeing upon prebiotic consumption.
Since ethanol is known to have antimicrobial effects, two blanks for each type of stock solution were included. As a source of the microbial community, a freshly prepared fecal suspension from the selected donor was added to the reactors. […] All tests, except the blanks, were performed in single repetition, resulting in 40 independent incubations, as specified in Table 1. Incubation conditions of the pre-screening experiment and the final experiment were 48 h at 37° C., under shaking (90 rpm) and anaerobic conditions. DNA were extracted from effluent samples collected from each fermentation flask before (0 h fermentation) and after fermentation (24 h fermentation) and use for microbiome composition analysis by Shotgun sequencing. Effluent samples were collected from each fermentation flask before (0 h fermentation) and after fermentation (48 h fermentation), sterilized by filtering through 0.22 μm filters and used for short chain fatty acids (SCFA), quantification of immunological biomarkers and in vitro analysis in cell culture systems.
For both sets of in vitro experiments, colon incubations were performed in closed incubation systems as described above. This allowed to evaluate the accumulation of gasses in the headspace, which can be measured with a pressure meter. Gas production is a measure of microbial activity, and thus of the speed of fermentation of the potentially prebiotic substrates

[2] = system: genes involved in Acetyl-CoA fermentation to Butyrate pathway; experiment: Shotgun sequencing functional analysis: butyrate pathway genes (first set); assay type: cell-based, human; settings: 0.2× dose; after 24 h fermentation; vs corresponding control
[3] = system: Co-cultures of Caco-2 and HT29-MTX-E12 cells; experiment: Barrier integrity (TEER), healthy gut model; assay type: cell-based; settings: 48 h minus 0 h fermentation samples, vs corresponding control
Description: Co-cultures of Caco-2 and HT29-MTX-E12 cells were used to assess the protective effect of the supernatants before (0 h) and after fermentation (48 h) for both sets of in vitro experiments above.
CaCo-2 ECACC 86010202 and HT29-MTX-E12 ECACC 12040401 cells (both from European Collection of Cell Cultures, Salisbury, UK) were both cultured at 37° C., in atmosphere of 5% CO2 in DMEM medium supplemented with 4.5 g/L D-Glucose, 4 mM L-Glutamine, 1 mM Sodium Pyruvate, 1% MEM Non-Essential Amino Acids, 50 μg/mL Gentamicin (Life Technologies Europe B.V., Zug, Switzerland) and 10% heat-inactivated FBS (Sigma-Aldrich, Buchs, Switzerland). Sub-confluent cells were trypsinized using 0.25% Trypsin/EDTA (Life Technologies Europe B.V., Zug, Switzerland) and passaged at a ratio of 1:5-1:10 twice a week. Cells between passages 55 and 85 were used for this study.
Cells were seeded at a density of 20000 cells/well in a 7:3 ratio (Caco-2:HT29-MTX-E12) in Corning HTS Transwell-24 system PET membranes, 0.4 μM pore size, cell growth area 0.33 cm2/well (Corning BV, Amsterdam, Netherlands) and cultured as described above. Media was changed every second to third day.
For both sets of in vitro experiments, after cells being 13 days in culture, initial transepithelial electrical resistance (TEER) readings were obtained using an EVOM2 Voltohmmeter (EVOM, World Precision Instruments, Berlin) equipped with STX100 Electrodes. TEER values correlate with the tightness of the confluent monolayer (Srinivasan et al. 2015).
The background TEER (insert) was subtracted from total TEER (cell monolayer plus insert) to yield the monolayer resistance and then normalized to surface area by multiplying with the area of the insert (Srinivasan et al. 2015). The integrity of the monolayer was determined at basal level by measuring TEER. A TEER of 300 Ωcm2 was regarded as a tight monolayer (see results section). Afterwards, the cells were treated with sterile filtered fermentation supernatants or fermentation medium as a control (diluted 1:20 in growth media). After 24 h incubation the resistance across each cell monolayer was measured again and the percentage change in TEER compared to initial TEER for each insert was calculated to represent a healthy gut model. All TEER measurements were done by placing the plates containing the inserts on a 37° C. warming plate and were performed in the same duration.

[4] = system: Bifidobacterium; experiment: Microbiome composition by shotgun sequencing: Bifidobacterium (first set); assay type: cell-based, human; settings: after 24 h fermentation, vs corresponding control
[5] = system: fecal microbial community; experiment: Microbiome composition by shotgun sequencing: alpha diversity (first set); assay type: cell-based, human; settings: after 24 h fermentation, vs corresponding control
[6] = system: cecal microbiota; experiment: Broiler feeding trial, cecal microbiota 16S rRNA sequencing; assay type: in vivo, chickens
Text: (§1) Each group was sampled three times (i.e., S1=14 days, S2=28 days, S3=38/42 days) in specific days corresponding to when the feed will be changed along the feeding program.
(§2) During each sampling (i.e., S1, S2 and S3) a total of 40 birds/group were humanely euthanized and 9 litter samples will be collected (i.e., 3 samples/group).
DNA extraction from cecal samples: The commercial kit DNeasy PowerSoil kit (Qiagen, Hilden, Germany) has been chosen and applied to all available cecal samples following the manufacturer instructions. DNA yield was measured using a Nanodrop instrument.
(§3) 16S rRNA gene PCR amplification and sequencing. The V3-V4 hypervariable region of the 16S rRNA gene was PCR-amplified using 341F and 785R primers with Illumina overhang adaptors sequences. Amplicons purification was performed by using AMPure XP Beads magnetic beads (Beckman Coulter, Brea, CA). For the indexed library preparation, the Nextera XT DNA Library Prep Kit (Illumina, San Diego, CA) was used. A further magnetic beads purification step was performed and libraries quantified using the Qubit 3.0 fluorimeter (Invitrogen), then pooled at 4 nM. The library pool was denatured with NaOH 0.2 N and diluted to […]. Sequencing was performed on Illumina MiSeq platform using a 2×250 bp paired end protocol, according to the manufacturer's instructions (Illumina).
Bioinformatics and statistics. Raw sequences were processed using a pipeline combining PANDAseq (Masella et al, 2012) and QIIME2 (Caporaso et al, 201 O; qiime2.org). After chimera sequences removal, high-quality reads were filtered and binned into high-resolution operational taxonomic units (OTUs) according to the taxonomic threshold of 99% through an open-reference strategy performed with dada2 (Callahan et al, 2016). Taxonomy was assigned using the vsearch classifier (Rognes et al, 2016) and SILVA database as reference (Quast et al, 2013). Alpha diversity was measured using Faith PD index and number of observed OTUs. Statistics was performed using R Studio software version 1.0.136 running on R software 3.1.3 (r-project.org/), implemented with the libraries vegan, made4, PMCMR. Beta diversity was estimated by computing weighted UniFrac distances and visualized by Principal Coordinates Analyses (PCoAs). The significance of separation among groups of samples was tested by permutational multivariate analysis of variance using the function adonis of the vegan package. Bacterial phylogenetic groups (genus, family, phylum) showing a minimum relative abundance of 0.5% in at least the 1% of the samples were kept for further analysis and graphical visualization. Compositional differences among group of samples were tested using Kruskal-Wallis test. P values were corrected for multiple comparisons using the Benjamini-Hochberg method.

[7] = system: litter microbiota; experiment: Broiler feeding trial, litter microbiota; assay type: in vivo, chickens; settings: groups A, B, C
Text: as §1, §2
as §3, with “Sequencing was performed on Illumina MiSeq platform using a 2×250 bp paired end protocol, according to the manufacturer's instructions (Illumina).” left out
Bioinformatics and statistics. […] After chimera sequences removal, high-quality reads were filtered and binned into high-resolution operational taxonomic units (OTUs) according to the taxonomic threshold of 99% through an open-reference strategy performed with dada2 (Callahan et al, 2016). […] Alpha diversity was measured using Faith PD index and number of observed OTUs. […]

Molecule: Vitamin E
- gas production ([1]; 1× dose): reduced gas production
- gas production ([1]; 5× dose): reduced gas production
- relative abundance of genes involved in Acetyl-CoA fermentation to Butyrate pathway [2]: increase relative abundance
- TEER, healthy gut cellular model ([3]; 1× dose): increase TEER
- TEER, healthy gut cellular model ([3]; 5× dose): increase TEER
- Bifidobacterium relative abundance ([4]; 0.2× dose): increase Bifidobacterium relative abundance
- Bifidobacterium relative abundance ([4]; 1× dose): increase Bifidobacterium relative abundance
- Bifidobacterium relative abundance ([4]; 5× dose): increase Bifidobacterium relative abundance
- microbiome alpha diversity (Shannon diversity index) ([5]; 0.2× dose): increase microbiome diversity
- microbiome alpha diversity (Shannon diversity index) ([5]; 1× dose): increase microbiome diversity
- microbiome alpha diversity (Shannon diversity index) ([5]; 5× dose): increase microbiome diversity

Molecule: Cc1cc2nc3c(=O)[nH]c(=O)nc-3n(C[C@H](O)[C@H](O)[C@H](O)CO)c2cc1C [Vitamin B2, riboflavin]
- abundance of family Bacteroidaceae and genus Bacteroides in cecum ([6]; Group B (50 mg/kg riboflavin), all available time points): significantly higher abundances
- cecal microbiota structure (beta diversity, UniFrac PCoA) ([6]; Group B (control diet+50 mg/kg riboflavin) vs groups A and C): different longitudinal trajectory
- abundance of Bifidobacteriaceae in cecum ([6]; Group C (100 mg/kg riboflavin), from T1 to T3, significant at T2 and T3): progressive increase
- cecal species richness (observed OTUs) ([6]; Group C (control diet+100 mg/kg riboflavin), time points T2 and T3, P<0.0001): significant increase in species richness
- [Eubacterium] coprostanoligenes group abundance in cecum ([6]; Groups B and C vs control group A, T2): higher abundance
- litter microbiome bacterial composition and species richness/diversity [7]: no significant differences
